From paper doi:10.1101/252379v1 (biorxiv, 2018)

Tests used:
[1] = molecular target: T1, Sir2La (Lactobacillus acidophilus, UniProt Q5FMQ6); assay: end-point fluorogenic deacylase assay; type: biochemical
T1 sequence (Q5FMQ6 1-239): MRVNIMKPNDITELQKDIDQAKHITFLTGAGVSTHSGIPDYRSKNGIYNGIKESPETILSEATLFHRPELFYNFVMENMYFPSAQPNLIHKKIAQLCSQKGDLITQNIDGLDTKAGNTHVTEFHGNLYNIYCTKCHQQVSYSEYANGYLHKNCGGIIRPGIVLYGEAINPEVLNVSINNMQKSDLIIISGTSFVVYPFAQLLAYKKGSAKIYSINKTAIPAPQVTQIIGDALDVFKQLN

[2] = molecular target: T1, Sir2La; assay: biochemical; conditions: 6 IC50 (µM), continuous, continuous assay
[3] = molecular target: T1, Sir2La; assay: fluorogenic deacylase assay; type: biochemical; conditions: read-out: % residual activity at 50 μM

NC(=O)c1cccnc1 [nicotinamide]
IC50 [1]: 350 ± 70 µM

CC(=S)NCCCC[C@H](NC(=O)OCc1ccccc1)C(=O)N[C@@H](Cc1c[nH]c2ccccc12)C(=O)NC(C)C [compound 6, thioacetamide 6]
IC50 ([2]; Ac-LGKac-AMC (2b)): 5.8 ± 0.1 µM | IC50 ([2]; Ac-LGKpro-AMC (2c)): 12 µM | IC50 [1]: 15 ± 2 µM

Cc1ccc(C(=O)Nc2ccc(S(=O)(=O)O)c3cc(S(=O)(=O)O)cc(S(=O)(=O)O)c23)cc1NC(=O)c1cccc(NC(=O)Nc2cccc(C(=O)Nc3cc(C(=O)Nc4ccc(S(=O)(=O)O)c5cc(S(=O)(=O)O)cc(S(=O)(=O)O)c45)ccc3C)c2)c1 [suramin]
IC50 [1]: 100 ± 30 µM

CNC(=S)NCCCC[C@H](NC(=O)OCc1ccccc1)C(=O)N[C@@H](Cc1c[nH]c2ccccc12)C(=O)NC(C)C [compound 7, thiourea 7]
remaining activity at 50 µM [3]: 77%
